System: TNBC patients
Experiment: Neoadjuvant trial of panitumumab with standard chemotherapy (pCR, EGFR and HER3 IHC)
Format: in vivo, human
Protocol: Patient samples: Tumor tissue was fixed in 10%-buffered formalin for 48 h and further embedded in paraffin. Four-micron sections were deparaffinized in xylene and hydrated in graded alcohols. For EGFR detection, the antigen was retrieved by protease treatment (8 min at 37° C.) and the sections further incubated at 37° C. for 1 h with pre-diluted, ready-to-use mouse monoclonal anti-EGFR (clone 3C6, Ventana, Tucson, Ariz.). The antigen-antibody reaction was visualized by UltraView DAB reveal system in a Benchmark XT automated IHC stainer (all from Ventana). For HER3, the antigen retrieval was performed by heating the sections at 97° C. for 20 min in EnVision® Target Retrieval Solution High pH (Dako) in PT-Link apparatus (Dako). The tissues were then incubated at 37° C. for 2 h with mouse monoclonal anti-HER3 (clone DAK-H3-IC, Dako, Glostrup, Denmak) diluted at 1:50. […] For each patient the pre-treatment and the post-treatment tumor sample were run together. IHC staining was interpreted by an expert pathologist who was blind to patient information. Both EGFR and HER3 expressions were quantified using an arbitrary scale having 0, 0.5, 1, 1.5, 2, 2.5 and 3 as measures of increasing staining intensity. EGFR and HER3 histoscores were defined as a sum of products obtained by multiplying the staining intensity with the percentage of stained cells.
FFPE specimens for IHC analyses of EGFR and HER3 expression were obtained from the institutions participating in two French multicenter pilot phase II neoadjuvant trials which tested the efficacy of an anti-EGFR antibody combined to chemotherapy in TNBC stage II-IIIA pts. One trial regimen consisted of 8 cycles, administered each 3 weeks. First 4 cycles contained 9 mg/kg of panitumumab combined with 500 mg/m2 of each 5-fluorouracil and cyclophosphamide plus 100 mg/m2 of epirubicin. Last 4 cycles had panitumumab with 100 mg/m2 docetaxel instead of 3 cytotoxics previously mentioned. […] All patients underwent surgery at completion of treatment. Pathologic complete response (pCR) was the primary endpoint with clinical response and toxicity as secondary endpoints. […] Tumor tissue samples were systematically collected before and at the end of the neoadjuvant treatment and collection was centralized at the Jean Perrin Comprehensive Cancer Center where molecular and pathological analyses were performed. pCR was evaluated using Chevallier's (Chevallier et al., American Journal of Clinical Oncology 16, 223 (1993)) and Sataloff's (Sataloff et al., Journal of the American College of Surgeons 180, 297 (1995)) classifications.

[1] = pre-treatment EGFR histoscore more than 70
[2] = pre-treatment EGFR histoscore ≦70

## panitumumab: anti-EGFR antibody, epidermal growth factor receptor antagonist
40 patients
  residual disease at the time of surgery, rate: 52.5%
40 patients, panitumumab with 4 standard cytotoxic agents, 24 weeks
  pathological complete response (pCR) rate: 47.5%
Comparison with Liedtke et al. 2008
  increase in pCR compared to TNBC patients treated only with cytotoxics-based neoadjuvant chemotherapy: two-fold increase
Of 40 patients
  patients with residual disease at the time of surgery: 21
Of 40 patients, panitumumab with 4 standard cytotoxic agents, 24 weeks
  patients achieving pathological complete response (pCR): 19
P equals 0.010
  non-pCR patients with higher HER3 expression in residual lesions versus pre-treatment (IHC): 7 out of 13
P equals 0.07
  non-pCR patients with decreased EGFR levels in residual tumors versus baseline (IHC): nine out of 21
[1]
  pCR rate: 58%
  patients with pCR: 15 out of 26
[2]
  complete tumor regression rate: 28%
  patients with complete tumor regression: 4 out of 14
